Columns and labels:
NK-YS (IL-2 2.5 ng/mL) [1] = assay: drug sensitivity score (DSS) (DSS units); higher = more sensitive; extreme values may be limits of the assay; settings: 72 h
[2] = system: normal primary NK cells, pool 3 (3 donors) (IL-2 2.5 ng/mL); assay: as above; settings: 72 h
NKL (IL-2 2.5 ng/mL) [3] = assay: as above; settings: 72 h
NK-92 (IL-2 2.5 ng/mL) [4] = assay: as above; settings: 72 h
[5] = system: normal primary NK cells, pool 1 (3 donors) (IL-2 2.5 ng/mL); assay: as above; settings: 72 h
[6] = system: normal primary NK cells, pool 1 (3 donors), resting (IL-2 0 ng/mL); assay: as above; settings: 72 h
[7] = system: normal primary NK cells, pool 2 (3 donors) (IL-2 2.5 ng/mL); assay: as above; settings: 72 h
IMC-1 (IL-2 20 ng/mL) [8] = assay: as above; settings: 72 h
YT (IL-2 2.5 ng/mL) [9] = assay: as above; settings: 72 h
KHYG-1 (IL-2 2.5 ng/mL) [10] = assay: as above; settings: 72 h
KAI3 (IL-2 2.5 ng/mL) [11] = assay: as above; settings: 72 h
DERL-7 (IL-2 2.5 ng/mL) [12] = assay: as above; settings: 72 h
SNK-6 (IL-2 2.5 ng/mL) [13] = assay: as above; settings: 72 h
NK-YS (IL-2 2.5 ng/mL) [14] = assay: percent inhibition of viability; higher = more inhibition; settings: 72 h
[15] = system: normal primary NK cells, pool 3 (3 donors) (IL-2 2.5 ng/mL); assay: as above; settings: 72 h
NKL (IL-2 2.5 ng/mL) [16] = assay: as above; settings: 72 h
NK-92 (IL-2 2.5 ng/mL) [17] = assay: as above; settings: 72 h
[18] = system: normal primary NK cells, pool 1 (3 donors) (IL-2 2.5 ng/mL); assay: as above; settings: 72 h
[19] = system: normal primary NK cells, pool 1 (3 donors), resting (IL-2 0 ng/mL); assay: as above; settings: 72 h
[20] = system: normal primary NK cells, pool 2 (3 donors) (IL-2 2.5 ng/mL); assay: as above; settings: 72 h
IMC-1 (IL-2 20 ng/mL) [21] = assay: as above; settings: 72 h
YT (IL-2 2.5 ng/mL) [22] = assay: as above; settings: 72 h
KHYG-1 (IL-2 2.5 ng/mL) [23] = assay: as above; settings: 72 h
KAI3 (IL-2 2.5 ng/mL) [24] = assay: as above; settings: 72 h
DERL-7 (IL-2 2.5 ng/mL) [25] = assay: as above; settings: 72 h
SNK-6 (IL-2 2.5 ng/mL) [26] = assay: as above; settings: 72 h
[27] = system: normal NK cells expanded with K562-aAPC; assay: drug sensitivity score (DSS) (DSS units); higher = more sensitive; extreme values may be limits of the assay; settings: 72 h; IL-2 2.5 ng/mL
Protocol: (§1)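 Drug sensitivity and resistance testing on K562-aAPC-expanded normal NK cells: 5 concentrations (10-fold steps over a 10,000-fold range), 72 h at 37 °C, viability by CellTiter-Glo normalised to DMSO and benzethonium chloride controls; DSS from the fitted curve.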

[28] = system: normal NK cells expanded with K562-aAPC; assay: percent inhibition of viability; higher = more inhibition; settings: 72 h, IL-2 2.5 ng/mL
Protocol: as §1

O=C1NC(=O)[C@@H](c2cn3c4c(cccc24)CCC3)[C@@H]1c1c[nH]c2ccccc12 [Tivantinib] (max concentration tested 1000 nM)
Settings | drug sensitivity score
DERL-7 (IL-2 2.5 ng/mL) [12] | 5.07
IMC-1 (IL-2 20 ng/mL) [8] | 5.57
KAI3 (IL-2 2.5 ng/mL) [11] | 4.63
KHYG-1 (IL-2 2.5 ng/mL) [10] | 7.4
NK-92 (IL-2 2.5 ng/mL) [4] | 10.4
NK-YS (IL-2 2.5 ng/mL) [1] | 7.74
NKL (IL-2 2.5 ng/mL) [3] | 4.03
SNK-6 (IL-2 2.5 ng/mL) [13] | 12.9
YT (IL-2 2.5 ng/mL) [9] | 6.61
[2] | 1
[5] | 0
[6] | 0
[7] | 2.26
[27] | 4.27

percent inhibition of viability [%]
Settings | 0.1 nM | 1 nM | 10 nM | 100 nM | 1000 nM
DERL-7 (IL-2 2.5 ng/mL) [25] | 1.35 | 4.31 | 5.17 | -5.73 | 98.9
IMC-1 (IL-2 20 ng/mL) [21] | -2.06 | -7.71 | 1.1 | 0.97 | 97.6
KAI3 (IL-2 2.5 ng/mL) [24] | -4.06 | 0.6 | 3.77 | 11.4 | 52.4
KHYG-1 (IL-2 2.5 ng/mL) [23] | 0.89 | -0.35 | 5.11 | 11.5 | 99.1
NK-92 (IL-2 2.5 ng/mL) [17] | -9.63 | -0.01 | -3.88 | 39 | 94.7
NK-YS (IL-2 2.5 ng/mL) [14] | 0.78 | -2.63 | 4.33 | 31.1 | 73.6
NKL (IL-2 2.5 ng/mL) [16] | -20.3 | -13.1 | -9.15 | -9.89 | 84.3
SNK-6 (IL-2 2.5 ng/mL) [26] | 9.19 | 0.24 | 0.91 | 70.4 | 83.3
YT (IL-2 2.5 ng/mL) [22] | -0.05 | -2.14 | 2.38 | 8.83 | 93.5
[15] | -12.8 | -3.79 | -11.9 | 5.81 | 17.4
[18] | -0.92 | 0.64 | -7.52 | -8.4 | 6.83
[19] | -0.8 | 10.8 | 3.09 | 6.28 | 8.64
[20] | -7.65 | -12.3 | -6.73 | 13.4 | 23.2
[28] | 4.66 | 1 | 5.6 | 5.87 | 61

CNC(=O)c1ccccc1Sc1ccc2c(/C=C/c3ccccn3)n[nH]c2c1 [Axitinib] (max concentration tested 10000 nM)
Settings | drug sensitivity score
DERL-7 (IL-2 2.5 ng/mL) [12] | 15.7
IMC-1 (IL-2 20 ng/mL) [8] | 5.63
KAI3 (IL-2 2.5 ng/mL) [11] | 10.5
KHYG-1 (IL-2 2.5 ng/mL) [10] | 11
NK-92 (IL-2 2.5 ng/mL) [4] | 8.68
NK-YS (IL-2 2.5 ng/mL) [1] | 9.35
NKL (IL-2 2.5 ng/mL) [3] | 8.51
SNK-6 (IL-2 2.5 ng/mL) [13] | 10.8
YT (IL-2 2.5 ng/mL) [9] | 9.19
[2] | 0.95
[5] | 3.89
[6] | 2.23
[7] | 1.77
[27] | 5.02

percent inhibition of viability [%]
Settings | 1 nM | 10 nM | 100 nM | 1000 nM | 10000 nM
DERL-7 (IL-2 2.5 ng/mL) [25] | -3.47 | 7.74 | 27 | 64.5 | 94
IMC-1 (IL-2 20 ng/mL) [21] | -1.86 | -0.66 | 0.71 | 4.7 | 89.3
KAI3 (IL-2 2.5 ng/mL) [24] | 2.52 | -0.91 | 10.2 | 47.2 | 82
KHYG-1 (IL-2 2.5 ng/mL) [23] | -2.88 | -3.36 | 4.43 | 49.4 | 93.1
NK-92 (IL-2 2.5 ng/mL) [17] | -13.6 | -7.2 | -14 | 24.3 | 90.7
NK-YS (IL-2 2.5 ng/mL) [14] | -3.68 | -2.56 | 3.21 | 38.7 | 85
NKL (IL-2 2.5 ng/mL) [16] | -1.55 | -1.93 | 18.9 | 32.5 | 69.6
SNK-6 (IL-2 2.5 ng/mL) [26] | -4.55 | -16.4 | -11.7 | 55.8 | 78.6
YT (IL-2 2.5 ng/mL) [22] | -2.15 | -4.48 | 1.03 | 33 | 85
[15] | -8.62 | 6.8 | 13 | 1.12 | 23
[18] | -5.69 | 14.3 | 5.75 | 13.8 | 44.6
[19] | -14.3 | 9 | 2.7 | 0.6 | 42.6
[20] | -13.7 | 4.14 | 6.01 | -6.27 | 42.8
[28] | -1.18 | -2.54 | -3.5 | 11.1 | 58.7
